Data reported in patent US8569524B2, “Bis(tetrahydrofuran) compound, method for production of the compund, and use of the compound” (Glytech Inc., priority 2007, dated 2013).

Test system: Pheochromocytoma (PC12) cells
Assay: Neurite outgrowth activity test in PC12 cells in the presence of NGF
Format: cell-based
Conditions: in the presence of DMSO and NGF (20 ng/ml), compared with the sample without compound, micrographs
Procedure: When the solvent was ethanol, the concentrations were targeted at 1 mM, 0.1 mM, and […]. A sample at 1 mM concentration was prepared first. When the amount of sample was 1 mg, the sample was dissolved in 100% ethanol (1/molecular weight×1,000)/2 ml, and an equal amount of Milli-Q (1/molecular weight×1,000)/2 ml was added thereto, after which the sample was filtered through a […] into a sample tube.
A sample at 0.1 mM concentration was prepared by diluting 1 mM solution 10-fold with 50% ethanol. Likewise, a sample at […] concentration was prepared from 0.1 mM solution.
When the solvent was DMSO, the concentrations were targeted at 10 mM, 1 mM, and 0.1 mM.
When the sample is prepared in ethanol, the sample is diluted 100-fold with the medium; and when the sample is prepared in DMSO, the sample is diluted 1,000-fold in the medium. The actual concentrations of the sample were thus […] both when the sample was prepared in ethanol and when the sample was prepared in DMSO.
Measurement was carried out using the following equipment and software.
Statistical processing of obtained data was carried out using “Origin ver. 7.0” (OriginLab, USA) and Mac Statistical Analysis. The significant difference was determined using Student's T-test and Dunnett's T-test.
Pheochromocytoma (PC12) cells were purchased from the Health Science Research Resources Bank of the Japan Health Sciences Foundation. Cell number: JCRB0733, product name: PC-12.
PC12 cells were cultivated in a medium having a composition including DMEM/10% HS, 5% FBS, 50 IU/ml penicillin, and […], in a culture flask coated with rat tail-derived collagen, in an incubator (95% humidity, 5% carbon dioxide). When the cell density becomes obviously too low, or when the cells overproliferate, the cells would be under load, requiring a longer time for proliferation and/or causing the cells to dye out. Thus, the cells were subcultured such that the cells would be present at a density of about 80% in the flask. When cells were subcultured or when activity evaluation tests were carried out, the cells were treated with trypsin (0.25%, 5 min.) to obtain a cell suspension, which was then seeded into a collagen-coated culture flask or plate.
The condition of the PC12 cells was observed; it was confirmed that at least 50% of the PC12 cells were fused. The plate was coated with rat tail-derived collagen; on the following day, the plate was washed twice with Milli-Q water. Then, a medium having a composition including DMEM/10% HS, 5% FBS, 50 IU/ml penicillin, and […] was prepared.
The medium in the culture flask was removed by suction. The PC12 cells were washed twice with PBS (5 mL), and trypsin (3 mL) was added thereto, which was then left to stand for about 5 minutes. A cell suspension was obtained by pipetting. In order to inhibit the activity of the trypsin, the cell suspension was transferred to a 50 mL centrifuge tube containing a serum-containing medium (2 mL). The total amount was adjusted to 10 mL with PBS, and the cell suspension was centrifuged (1,000 rpm×5 min). After centrifuging, the supernatant liquid was removed by suction using a pump, PBS (10 mL) was added thereto, and pipetting was carried out several times using a bent-tip Komagome pipette. After pipetting, the cell suspension was centrifuged again, and a similar operation was repeated twice. […]

For `CO[C@]1(C)C[C@@H]2OCC3=CCCCC32O1` (some centres unmarked) [Compound 1D-2-1], the neurite outgrowth activity (1 μM compound) was “further enhanced neurite outgrowth activity” and the neurite outgrowth activity (10 μM compound) was “further enhanced neurite outgrowth activity”.

For `CCO[C@]1(C)C[C@@H]2OCC3=CCCC[C@]32O1` [Compound 1D-2-3], the neurite outgrowth activity (10 μM compound) was “further enhanced neurite outgrowth activity”.

`CO[C@@]1(C)C[C@@H]2OCC3=CCCCC32O1` (some centres unmarked) [Compound 1C-2-1] was tested, and the neurite outgrowth activity (1 μM compound) was “further enhanced neurite outgrowth activity” and the neurite outgrowth activity (10 μM compound) was “further enhanced neurite outgrowth activity”.
